Measurements: patent publication US20080112927A1, “Cells and methods utilizing same for modifying the electrophysiological function of excitable tissues” (GeneGrafts Ltd., priority 2006, published 2008)

What was measured:
[1] = system: cultured neuronal network (cortical neurons); assay: Spiking activity of cultured cortical neuronal network on multi electrode array (MEA); format: cell-based, rat
Experimental: Cortical neurons were obtained from newborn rats within 24 hours from birth, following standard harvesting procedures (Culturing nerve cells, 2nd edition, Gary Ranker and Kimberly Goslin, 1998). The cortex tissue was digested enzymatically and mechanically dissociated and the neurons were plated directly onto substrate-integrated multi-electrode array (MEA) dishes prepared as described below. The cultures were bathed in MEM which was supplemented with heat-inactivated horse serum (5%), Glutamine (0.5 mM), Glucose (20 mM), and Gentamycin (10 μg/ml), and maintained in a tissue culture incubator at 37° C., 5% CO2 and 95% during the recording phases. Half of the medium was exchanged twice a week and the experiments were performed during the third week following plating, thus allowing complete maturation of the neurons (FIGS. 1a-b).
Arrays of 60 Ti/Au/TiN electrodes, 30 μm in diameter, spaced 200 μm from each other (MultiChannelSystems (MCS), Reutlingen, Germany) were utilized in the present study. The insulation layer (silicon nitride), was pretreated with poly-L-lysine forming a good surface for network development. A commercial 60-channel amplifier (B-MEA-1060, MCS, Reutlingen, Germany) with frequency limit range of 10-3000 Hz and a gain of ×1024 was utilized for signal amplification. The amplifier was connected to MCPPlus filter amplifiers (Alpha Omega, Nazareth, Israel) for further amplification (×10 to ×20). Stimulation through the MEA was performed using a dedicated 8-channel stimulus generator (MCS, Reutlingen, Germany).
In addition, the micro-incubation environment was arranged to support long-term recordings from MEA dishes. This was achieved by streaming a filtered, heated and humidified air/CO2 (95/5%) gas mixture, and by electrically heating the MEA platform to 37° C. Data is digitized using two 5200a/526 A/D boards (Microstar Laboratories, Wash., USA).
Following electrical functionality determination, the neuronal network cultures were incubated with various electrical conduction blockers.

[2] = system: cardiomyocyte cultures or cardiomyocytes co-cultured with untransfected fibroblasts; assay: CTX on MEA-recorded activity of control cultures (Example 5); format: cell-based, rat; conditions: for increase of spontaneous activity rate: control cultures
Experimental: (§1) Monolayer cultures of neonatal rat ventricular cardiomyocytes (NRVM) were prepared as previously described (Rubin et al, 1995), with some modifications. The cultures were maintained in a humidified incubator under a controlled environment of 5% CO2+95% air at 37° C.; fresh medium was replaced on alternating days.
(§2) Fibroblasts from the NIH 3T3 cell line were transfected with an expression cassette which included a mutant voltage gated potassium channel (Kv1.3) coding sequence (GeneBank Accession number H18261) placed under the transcription control of a constitutive promoter using standard procedures. Fibroblast cultures not transfected with the channel coding sequence were produced from the NIH 3T3 cell-line.
Once well synchronous spontaneous activity was established in the cardiomyocyte cultures, fibroblasts transfected with the Kv1.3 channel coding sequence or non-transfected fibroblasts were added to the cultures. Two different methods where used to seed the fibroblasts. In the first method, the fibroblast were suspended in trypsin for 5 minutes following which they were seeded in a diffuse pattern in the cardiomyocytic cultures (FIG. 4a). […]
Extracellular recordings from cultured cardiomyocytes were performed on a PC-based Microelectrode Data Acquisition System (Multi Channel Systems, Reutlingen, Germany), consisting of Multi-Electrode Array (MEA), pre- and filter-amplifiers, data acquisition board, and software. […] Data were recorded at 10-25 KHz with 12-bit precision. […]
Recorded data was filtered using cutoff frequency of 2 KHz (Fast et al, 1993). […] Conduction velocity was calculated by standard methods (Bayly et al, 1988).
(§3) Conduction block quantification is central to evaluating conduction block development in the cell cultures, and to evaluating reversibility of the conduction block following CTX application. A conduction block was determined using the following algorithm: […]
(§4) Electrical activity of the cultures was recorded on day one immediately prior to seeding of the fibroblasts and then daily until the cultures died or no spontaneous activity was detected. […]

[3] = system: cardiomyocytes co-cultured with fibroblasts (NIH 3T3) transfected with voltage gated potassium channel Kv1.3; assay: CTX on MEA-recorded activity of cardiomyocytes co-cultured with Kv1.3 transfected fibroblasts (Example 5); format: cell-based, rat; conditions: for increase of spontaneous activity rate: co-cultures with transfected fibroblasts
Experimental: as §1, §2
Once well synchronous spontaneous activity was established in the cardiomyocyte cultures, fibroblasts transfected with the Kv1.3 channel coding sequence or non-transfected fibroblasts were added to the cultures. Two different methods where used to seed the fibroblasts. In the first method, the fibroblast were suspended in trypsin for 5 minutes following which they were seeded in a diffuse pattern in the cardiomyocytic cultures (FIG. 4a). In the second method, the fibroblasts where pipetted up and down through a 5 ml pipette for 2 minutes and seeded in the cardiomyocytic cultures thus were forming clusters of fibroblasts (FIG. 4b).
Extracellular recordings from cultured cardiomyocytes were performed on a PC-based Microelectrode Data Acquisition System (Multi Channel Systems, Reutlingen, Germany), consisting of Multi-Electrode Array (MEA), pre- and filter-amplifiers, data acquisition board, and software. The MEA consists of a 50×50 mm glass substrate, in the center of which is an embedded 0.7×0.7 or 1.4×1.4 mm matrix of 60 Titanium-nitride, gold contacts 10 or 30 μm diameter electrodes insulated with silicone nitride, with inter-electrode distance of 100 or 200 μm (there are no electrodes in the corners of the matrix). Data were recorded at 10-25 KHz with 12-bit precision. During the recording sessions, the MEA (removed from the regular incubator) was constantly perfused with a gas mixture consisting of 5% CO2+95% air. Temperature was kept at 37±0.10° C.
Recorded data was filtered using cutoff frequency of 2 KHz (Fast et al, 1993). The filtered signal was then differentiated digitally to determine the Local Activation Time (LAT) at each electrode, corresponding to dF/dtmin (where F is the filtered signal) (Dolber and Spach, 1986). Color-coded activation maps were constructed by interpolating the LAT values for the sites between the electrodes, and by extrapolating the LAT values for the 4 corners of the MEA matrix. Activation maps were plotted by means of Matlab standard 2-d plotting function (pcolor) (Matlab 5.3 Mathworks Incorporated©). Conduction velocity was calculated by standard methods (Bayly et al, 1988).
as §3, §4

[4] = system: cardiomyocyte cultures seeded with naive fibroblasts; assay: CTx on spontaneous beating rate of control co-cultures (naive fibroblasts) (Example 8); format: cell-based, rat; conditions: CTx application, control group
Experimental: (§5) Expression system and electrophysiological recordings—NIH 3T3 fibroblast cells (ATCC: CRL 1658) were stably transfected to express the voltage gated potassium channel Kv1.3 as previously described [Feld Y. et al. Circulation. (2002); 105:522-529]. Briefly, stable transfection of pRC/CMV/Kv1.3 in fibroblasts was achieved using electroporation with a single pulse of 200 V, 960° F. followed by antibiotic selection of NeoR clones with 400 μg/mL of G-418 (GIBCO, Langley, Okla., USA). Colonies were picked and tested for channel expression using whole-cell patch clamp recordings. The recordings were conducted at room temperature using Axopatch 200 (Axon Instruments). Kv1.3 expressing fibroblast were generated as previously described [Feld Y. et al. Circulation. (2002); 105:522-9]. […]
(§6) Once a well synchronous spontaneous activity was established in the cardiomyocyte cultures, fibroblasts (naïve, or Kv1.3 expressing fibroblasts) were seeded in a diffuse manner into the cardiomyocytic cultures. Two groups were studied: The cultures were studied daily, and the electrophysiological properties, essentially the spontaneous beating rate of the culture, was assessed at baseline and following application of the specific Kv1.3 blocker, Charybdotoxin (CTx), at increasing dosages (1, 10, 100 nM). […]

[5] = system: cardiomyocyte cultures seeded with Kv1.3 expressing fibroblasts; assay: CTx on spontaneous beating rate of study co-cultures (Kv1.3 expressing fibroblasts) (Example 8); format: cell-based, rat; conditions: CTx 100 nM, study group (FIG. 18b)
Experimental: as §5, §6

[6] = system: Kv 1.3 channel of grafted fibroblasts in left ventricular myocardium; assay: ERP after Margatoxin in rats grafted with Kv1.3 fibroblasts; format: in vivo, rat; conditions: 9 μg/kg intraperitoneal bolus; for local ventricular ERP at the site of cell transplantation after MTx, group mean: 154±13 ms before blocker (FIG. 19b)
Experimental: (§7) Rat model—Male Sprague-Dawley rats weighing 200-250 gr were anesthetized using A Xylasine (0.5 mg/kg) and Ketamine (0.5 mg/kg) preparation [see Example 7]. The animals were then intubated and ventilated using a Harvard small-animal mechanical respirator. The chest wall was opened using a left thoracotomy and the heart was exposed. After removal of the pericardium, a total of 6×10^6 cells (either fibroblasts without transfections in the control group or fibroblast overexpressing the KV1.3 channel in the study group) were transplanted into the anterior aspect of the left ventricular wall using a 28 g needle. In order to prevent graft rejection, all animals were treated with a daily dose of cyclosporin (10 mg/kg) and methyprednisolone (2 mg/kg). The animals underwent a detailed electrophysiological study (see below) immediately before cell grafting and 7 days post-transplantation.
(§8) In vivo electrophysiological studies—The electrophysiological study in rats included a standard ventricular pacing protocol to determine the local myocardial effective refractory period (ERP). The ERP was evaluated by applying a train of 20 stimuli at a fixed cycle-length of 200 ms (S1), followed by a single premature stimulus (S2). The S1-S2 coupling interval was gradually shortened. The ERP was determined as the shortest S1-S2 coupling interval still capable of eliciting a ventricular response. Stimuli were generated using a computer controlled STG 1004 stimulus generator with the matching MC-Stim software (both from Multi Channel Systems, Reutlingen, Germany).
The ERP was measured at the site of cell transplantation and at remote sites, both prior to cell transplantation and seven days following cell grafting. In order to dissect the role of the overexpressed channel in altering the local myocardial electrophysiological properties, the ERP was measured also at each site following application of 9 μg/kg of Margatoxin (Alomone Labs, Jerusalem, Israel), a specific Kv 1.3 channel blocker as an intraperitoneal bolus.

[7] = system: Kv1.3 channel of grafted fibroblasts in right ventricle; assay: ERP after local Margatoxin in pigs grafted with Kv1.3 fibroblasts; format: in vivo, pig
Experimental: Swine model—Three domestic pigs (20-30) kg were studied. Anesthesia was induced with 5-10 ml of intravenous sodium pentothal 2.5% solution and maintained with inhaled isoflurane (2%) in oxygen. Following a right thoracotomy, each heart was exposed and a total of 6×10^6 cells were transplanted at a total of 7 different locations in the anterior free wall of the right ventricle. Cells were delivered using a 25 g needle using an injection volume of 250 μl. The sites of cell transplantation were marked with a suture. To prevent graft rejection, the animals were treated with an immunosuppressive regimen (cyclosporine, 10 mg/kg/d and methylprednisolone, 3 mg/kg/d). 7 days following cell transplantation, a second thoracotomy and a detailed epicardial electrophysiological study were performed.
The ERP in the pigs was measured in a similar manner to that in the rats but using slower basic stimulation intervals (CLs of 350, 400 and 500 ms). The ERP was measured at the site of cell transplantation as well as in remote sites and also following local intramyocardial injection of Margatoxin at the examined sites.

[8] = system: left ventricular myocardium grafted with naive fibroblasts; assay: ERP after Margatoxin in rats grafted with naive fibroblasts (control group); format: in vivo, rat; conditions: animals grafted with naive fibroblasts, 88±4 ms before blocker
Experimental: as §7, with “The animals underwent a detailed electrophysiological study (see below) immediately before cell grafting and 7 days post-transplantation.” left out
as §8, with “The S1-S2 coupling interval was gradually shortened.” left out, “Stimuli were generated using a computer controlled STG 1004 stimulus generator with the matching MC-Stim software (both from Multi Channel Systems, Reutlingen, Germany).” left out
The ERP was measured at the site of cell transplantation and at remote sites, both prior to cell transplantation and seven days following cell grafting. […]

[9] = target: mutant voltage gated potassium channel Kv1.3 (GenBank Accession number H18261) expressed in NIH 3T3 fibroblasts; assay: cell-based or functional assay

## N[C@H](CCCP(=O)(O)O)C(=O)O [APV, D-2-amino-5-phosphonovalerate]
[1]; 20 μM added to the cultured neuronal network
  spiking activity: completely abolished

## O=[N+]([O-])c1cc2nc(O)c(O)nc2cc1[N+](=O)[O-] [DNQX]
[1]; 10 μM added to the cultured neuronal network
  spiking activity: completely abolished

## CN1CCc2cc3c(cc2[C@H]1[C@@H]1OC(=O)c2c1ccc1c2OCO1)OCO3 [bicuculin]
[1]; 5 μM added to the cultured neuronal network
  spiking activity: completely abolished

## Charybdotoxin (QFTNVSCTTSKECWSVCQRLHNTSRGKCMNKKCRCYS) [CTX]
[2]; CTX 10 nM
  increase of spontaneous activity rate: did not increase
[2]; CTX 100 nM
  increase of spontaneous activity rate: up to 15%
[2]; application of Charybdotoxin, co-cultures with non-transfected fibroblasts, n=9 (FIG. 11)
  conduction block factor: minimal response
[3]; CTX 10 nM
  increase of spontaneous activity rate: 20%
[3]; CTX 100 nM
  increase of spontaneous activity rate: 55%
[3]; application of Charybdotoxin, co-cultures with Kv1.3 transfected fibroblasts, n=10 (FIG. 11)
  conduction block factor: substantially decreased
[3]; following treatment with CTX (10 nM, FIG. 7d; FIG. 11)
  conduction blocks: reversed
[3]; following treatment with CTX (100 nM, FIGS. 6f-g)
  uncoupling effect after fibroblast seeding: reversed
[4]
  beating frequency: did not significantly alter
[5]
  reversibility of the negative chronotropic effect induced by the transfected fibroblast: full reversibility

## Margatoxin (TIINVKCTSPKQCLPPCKAQFGQSAGAKCMNGKCKCYPH)
[6]
  local ventricular ERP at the site of cell transplantation after MTx, group mean: 117 ± 7.70 ms
[6]; listed as MTx
  local ventricular ERP at the site of cell transplantation after MTx, group mean: 117 ± 8 ms
[6]; 170 ms before blocker (FIG. 19a)
  ventricular ERP at the site of cell grafting after Margatoxin, one of the animals: 100 ms
[7]; pig, basic CL 400 ms, 310 ms before blocker (FIG. 20a)
  local ERP after local application of MTx: 220 ms
[7]; pigs, all three CLs (FIG. 20b)
  ventricular ERP after local application of MTx: not different from the control sites
[8]
  local ERP after administration of Mtx, control group: did not change significantly

## Margatoxin (from UniProt P40755 1-39) (peptide)
[9]
  local ventricular effective refractory period (ERP) at the graft site in one rat after Margatoxin (170 ms before): 100 ms
